Test results as given in publication PMC6973011, “Stafia‐1: a STAT5a‐Selective Inhibitor Developed via Docking‐Based Screening of in Silico O‐Phosphorylated Fragments” (Chemistry (Weinheim an Der Bergstrasse, Germany), 2019).
Changes are numbered by the printed parent chain.

Tests used:
Format in all cases: binding
STAT5a Trp566Arg = biological target: T1, STAT5a Trp566Arg (Homo sapiens, UniProt P42229, W566R); experiment: Fluorescence polarization assay, point mutant STAT5a Trp566Arg
T1 construct: made in house
T1 sequence (P42229 1-794 W566R): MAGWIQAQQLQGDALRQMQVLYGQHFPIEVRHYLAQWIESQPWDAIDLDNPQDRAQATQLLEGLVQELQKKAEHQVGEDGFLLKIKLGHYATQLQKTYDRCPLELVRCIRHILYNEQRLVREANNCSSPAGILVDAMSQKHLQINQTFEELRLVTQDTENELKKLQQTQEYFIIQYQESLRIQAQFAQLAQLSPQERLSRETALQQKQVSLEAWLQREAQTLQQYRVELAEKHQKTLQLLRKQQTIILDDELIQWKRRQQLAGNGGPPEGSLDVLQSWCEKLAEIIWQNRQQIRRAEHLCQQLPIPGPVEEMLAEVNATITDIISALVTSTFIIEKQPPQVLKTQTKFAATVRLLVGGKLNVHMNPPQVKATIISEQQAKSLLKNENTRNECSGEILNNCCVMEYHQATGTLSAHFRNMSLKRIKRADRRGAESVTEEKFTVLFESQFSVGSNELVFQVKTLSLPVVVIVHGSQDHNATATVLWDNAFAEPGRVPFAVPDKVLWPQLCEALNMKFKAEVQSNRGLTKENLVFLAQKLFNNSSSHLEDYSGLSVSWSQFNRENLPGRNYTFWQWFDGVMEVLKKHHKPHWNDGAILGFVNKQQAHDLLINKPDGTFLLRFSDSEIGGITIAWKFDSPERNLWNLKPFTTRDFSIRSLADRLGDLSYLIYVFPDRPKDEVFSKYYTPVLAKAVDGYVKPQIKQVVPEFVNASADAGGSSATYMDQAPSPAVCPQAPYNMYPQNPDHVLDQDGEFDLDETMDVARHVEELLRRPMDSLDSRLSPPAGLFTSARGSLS

STAT5b Arg566Trp = biological target: T2, STAT5b Arg566Trp (Homo sapiens, UniProt P51692, R566W); experiment: Fluorescence polarization assay, point mutant STAT5b Arg566Trp; conditions: FP assay
T2 construct: made in house
T2 sequence (P51692 1-787 R566W): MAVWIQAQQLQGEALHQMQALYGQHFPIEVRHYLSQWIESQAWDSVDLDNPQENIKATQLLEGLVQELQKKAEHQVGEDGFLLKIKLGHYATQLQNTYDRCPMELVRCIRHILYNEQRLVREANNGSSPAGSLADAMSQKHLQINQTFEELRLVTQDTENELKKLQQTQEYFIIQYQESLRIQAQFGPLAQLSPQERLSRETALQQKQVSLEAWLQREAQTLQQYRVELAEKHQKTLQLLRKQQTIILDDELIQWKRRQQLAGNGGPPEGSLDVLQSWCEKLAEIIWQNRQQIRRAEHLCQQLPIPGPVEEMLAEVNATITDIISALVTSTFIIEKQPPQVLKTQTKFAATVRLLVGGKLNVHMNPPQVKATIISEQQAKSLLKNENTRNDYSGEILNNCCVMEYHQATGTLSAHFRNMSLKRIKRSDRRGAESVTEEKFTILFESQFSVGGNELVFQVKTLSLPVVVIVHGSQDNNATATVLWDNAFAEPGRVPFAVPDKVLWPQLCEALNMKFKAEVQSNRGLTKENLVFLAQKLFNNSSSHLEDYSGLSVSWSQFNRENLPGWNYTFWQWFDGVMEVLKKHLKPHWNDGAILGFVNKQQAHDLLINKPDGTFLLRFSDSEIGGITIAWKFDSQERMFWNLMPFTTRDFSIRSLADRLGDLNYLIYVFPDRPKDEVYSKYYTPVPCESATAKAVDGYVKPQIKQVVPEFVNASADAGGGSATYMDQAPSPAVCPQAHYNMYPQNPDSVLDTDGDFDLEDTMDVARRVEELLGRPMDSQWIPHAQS

[1] = biological target: T3, STAT5b Gln636Pro/Met639Asn/Phe640Leu/Met644Lys/Asn664Ser/Tyr679Phe (STAT5b‐6M) (Homo sapiens, UniProt P51692, F640L/M639N/M644K/N664S/Q636P/Y679F); experiment: Fluorescence polarization assay, mutant STAT5b-6M
T3 construct: made in house
T3 sequence (P51692 1-787 Q636P/M639N/F640L/M644K/N664S/Y679F): T2 sequence (P51692 1-787 R566W) with W566R, Q636P, M639N, F640L, M644K, N664S, Y679F

[2] = FP assay, double-purified protein

For `COc1cc(-c2cc(OP(=O)(O)O)cc(-c3cc(OC)c(OC)c(OC)c3)c2)cc(OC)c1OC` [Compound 20], the IC50 (STAT5a Trp566Arg; [2]) was 155 ± 15 µM, the Ki (STAT5a Trp566Arg; [2]) was 74 ± 7 µM and the “reduction of activity against STAT5a Trp566Arg as compared to wild-type STAT5a” value (STAT5a Trp566Arg; FP assays) was 7 fold. For the same molecule, the inhibition at 200 µM (STAT5b Arg566Trp) was 43 ± 7%, the inhibition at 200 µM ([1]; FP assay, 200 µM) was 46 ± 8% and the “activity against STAT5b-6M lower than activity against wild-type STAT5a” value ([1]; FP assays) was “approximately 10 fold”.
